Data as given in ChEMBL document CHEMBL4680085 (J Med Chem, 2016).
Activity calls are given as the source filed them. The calls are words filed in the database; no cut-off is given here.

Columns and labels:
SH-SY5Y [1] = assay: Neuroprotection in human SH-SY5Y cells assessed as reduction in beta-amyloid peptide (1-42)-induced cell death at 1 uM incubated for 24 hrs by MTT assay; assay type: functional; parameters: scale not given: the % may be the effect or the level left
SH-SY5Y [2] = assay: Neuroprotection in human SH-SY5Y cells assessed as reduction in beta-amyloid peptide (1-40)-induced cell death at 1 uM incubated for 24 hrs by MTT assay; assay type: functional; parameters: scale not given: the % may be the effect or the level left
Cholinesterase [3] = biological target: T1, Cholinesterase (Homo sapiens, UniProt P06276); assay: Competitive type inhibition of BuChE in human erythrocyte hemo-lyzates using […] substrate by Ellman's method based Lineweaver-Burk plot analysis; assay type: tissue-based
T1 sequence (P06276 whole entry): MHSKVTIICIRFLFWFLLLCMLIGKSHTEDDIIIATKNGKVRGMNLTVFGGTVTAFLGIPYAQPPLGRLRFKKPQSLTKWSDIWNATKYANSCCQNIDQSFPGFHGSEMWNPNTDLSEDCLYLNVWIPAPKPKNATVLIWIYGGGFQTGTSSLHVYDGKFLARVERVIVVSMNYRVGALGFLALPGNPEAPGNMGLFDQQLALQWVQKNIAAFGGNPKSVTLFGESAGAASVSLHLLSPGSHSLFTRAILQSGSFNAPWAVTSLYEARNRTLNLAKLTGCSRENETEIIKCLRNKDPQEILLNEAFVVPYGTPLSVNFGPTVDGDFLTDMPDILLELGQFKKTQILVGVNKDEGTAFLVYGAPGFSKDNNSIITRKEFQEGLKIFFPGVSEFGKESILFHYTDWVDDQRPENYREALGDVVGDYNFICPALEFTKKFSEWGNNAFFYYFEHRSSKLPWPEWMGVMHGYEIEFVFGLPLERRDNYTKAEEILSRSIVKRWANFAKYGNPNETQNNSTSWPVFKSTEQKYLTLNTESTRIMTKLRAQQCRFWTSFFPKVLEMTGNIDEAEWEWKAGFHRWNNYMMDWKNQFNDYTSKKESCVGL

Cholinesterase [4] = biological target: T1, Cholinesterase; assay: Inhibition of BuChE in human erythrocyte hemo-lyzates pre-incubated for 5 mins before addition of butyrylthiocholine iodide substrate by Ellman's method; assay type: tissue-based
SH-SY5Y [5] = assay: Neuroprotection in human SH-SY5Y cells assessed as reduction in Rotenone/Oligomycin A -induced cell death at 1 uM incubated for 24 hrs by MTT assay; assay type: functional; parameters: scale not given: the % may be the effect or the level left
SH-SY5Y [6] = assay: Neuroprotection in human SH-SY5Y cells assessed as reduction in H2O2-induced cell death at 3 uM incubated for 24 hrs by MTT assay; assay type: functional; parameters: scale not given: the % may be the effect or the level left
[7] = Effective permeability at 100 uM after 3 to 6 hrs by PAMPA assay; assay type: ADME; details: time 3-6 hrs, read-out: Peff
in vitro [8] = details: human, HepG2 cells
Description: Toxicity in human HepG2 cells assessed as cell viability at 100 uM by MTT assay relative to control

Acetylcholinesterase [9] = biological target: T2, Acetylcholinesterase (Homo sapiens, UniProt P22303); assay: Potency index, ratio of IC50 for tacrine to IC50 for test compound for inhibition of AChE in human erythrocyte hemo-lyzates pre-incubated for 5 mins before addition of acetylthiocholine iodide substrate by Ellman's method; assay type: tissue-based
T2 sequence (P22303 whole entry): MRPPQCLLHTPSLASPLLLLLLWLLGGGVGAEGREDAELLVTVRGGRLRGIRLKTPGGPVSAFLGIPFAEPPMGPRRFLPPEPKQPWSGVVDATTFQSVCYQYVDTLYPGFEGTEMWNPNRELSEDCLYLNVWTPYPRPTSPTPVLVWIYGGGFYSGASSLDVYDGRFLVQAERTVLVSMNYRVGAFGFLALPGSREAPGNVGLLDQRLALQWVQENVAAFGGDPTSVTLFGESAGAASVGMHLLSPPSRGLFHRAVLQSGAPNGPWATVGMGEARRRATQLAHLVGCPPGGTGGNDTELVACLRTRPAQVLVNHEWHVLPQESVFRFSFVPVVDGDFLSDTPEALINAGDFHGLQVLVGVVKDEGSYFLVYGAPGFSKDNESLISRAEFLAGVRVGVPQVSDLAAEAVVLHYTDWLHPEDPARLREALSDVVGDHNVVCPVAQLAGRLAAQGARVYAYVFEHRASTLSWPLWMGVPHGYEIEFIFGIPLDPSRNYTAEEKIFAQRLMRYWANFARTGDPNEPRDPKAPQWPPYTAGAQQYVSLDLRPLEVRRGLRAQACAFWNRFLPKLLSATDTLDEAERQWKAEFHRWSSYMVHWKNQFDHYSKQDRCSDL

SH-SY5Y [10] = assay: Neuroprotection in human SH-SY5Y cells assessed as reduction in beta-amyloid peptide (1-42)-induced cell death at 3 uM incubated for 24 hrs by MTT assay; assay type: functional; parameters: scale not given: the % may be the effect or the level left
Acetylcholinesterase [11] = biological target: Acetylcholinesterase (Electrophorus electricus, UniProt O42275); assay: Inhibition of Electrophorus electricus AChE pre-incubated for 10 mins before addition of acetylthiocholine iodide substrate and further incubated for 15 mins by Ellman's method
Chain of Acetylcholinesterase (Electrophorus electricus, UniProt O42275) (O42275 whole entry): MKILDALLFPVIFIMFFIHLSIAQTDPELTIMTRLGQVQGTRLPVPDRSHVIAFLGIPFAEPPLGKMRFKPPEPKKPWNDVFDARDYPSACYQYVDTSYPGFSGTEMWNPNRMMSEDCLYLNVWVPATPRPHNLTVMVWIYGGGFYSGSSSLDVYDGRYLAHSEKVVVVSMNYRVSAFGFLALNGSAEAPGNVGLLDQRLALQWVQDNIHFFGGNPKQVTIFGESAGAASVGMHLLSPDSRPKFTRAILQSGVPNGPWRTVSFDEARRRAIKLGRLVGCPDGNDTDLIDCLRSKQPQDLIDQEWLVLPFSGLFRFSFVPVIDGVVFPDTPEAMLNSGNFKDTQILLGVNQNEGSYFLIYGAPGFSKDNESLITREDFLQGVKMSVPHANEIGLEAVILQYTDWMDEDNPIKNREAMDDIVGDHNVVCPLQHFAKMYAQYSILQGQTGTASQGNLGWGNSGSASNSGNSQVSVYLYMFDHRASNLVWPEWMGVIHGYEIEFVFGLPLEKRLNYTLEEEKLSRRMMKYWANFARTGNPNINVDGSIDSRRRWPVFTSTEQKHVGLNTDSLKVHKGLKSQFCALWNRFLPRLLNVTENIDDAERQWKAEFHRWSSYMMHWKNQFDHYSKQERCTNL

Cholinesterase [12] = biological target: T1, Cholinesterase; assay: Potency index, ratio of IC50 for tacrine to IC50 for test compound for inhibition of BuChE in human erythrocyte hemo-lyzates pre-incubated for 5 mins before addition of butyrylthiocholine iodide substrate by Ellman's method; assay type: tissue-based
[13] = biological target: T3, Nuclear factor erythroid 2-related factor 2 (Homo sapiens) (UniProt Q16236); assay: Activation of NRF2 in human MCF-7/AREc32 cells assessed as concentration required to double Nrf2 transcriptional pathway by measuring specific luciferase reporter activity incubated for 24 hrs by luciferase reporter gene assay; assay type: cell-based; details: MCF7, filed as activator
T3 sequence (whole entry): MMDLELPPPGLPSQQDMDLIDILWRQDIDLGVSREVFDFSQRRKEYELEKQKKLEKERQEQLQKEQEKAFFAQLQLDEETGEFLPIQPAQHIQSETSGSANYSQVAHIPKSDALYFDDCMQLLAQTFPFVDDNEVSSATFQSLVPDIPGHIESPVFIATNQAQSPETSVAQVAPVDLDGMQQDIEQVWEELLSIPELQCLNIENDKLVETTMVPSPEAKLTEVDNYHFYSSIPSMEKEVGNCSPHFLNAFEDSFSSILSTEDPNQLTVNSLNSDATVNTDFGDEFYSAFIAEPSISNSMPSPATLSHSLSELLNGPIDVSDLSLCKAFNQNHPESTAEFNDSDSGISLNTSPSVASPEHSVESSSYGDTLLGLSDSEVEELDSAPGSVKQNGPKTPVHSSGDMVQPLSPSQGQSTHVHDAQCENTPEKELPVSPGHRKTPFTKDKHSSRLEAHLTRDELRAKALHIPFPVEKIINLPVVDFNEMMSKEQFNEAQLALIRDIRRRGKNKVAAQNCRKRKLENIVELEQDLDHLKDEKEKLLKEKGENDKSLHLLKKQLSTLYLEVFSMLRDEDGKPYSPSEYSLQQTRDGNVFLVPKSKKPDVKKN

Acetylcholinesterase [14] = biological target: T2, Acetylcholinesterase; assay: Inhibition of AChE in human erythrocyte hemo-lyzates pre-incubated for 5 mins before addition of acetylthiocholine iodide substrate by Ellman's method; assay type: tissue-based
SH-SY5Y [15] = assay: Neuroprotection in human SH-SY5Y cells assessed as reduction in beta-amyloid peptide (1-40)-induced cell death at 3 uM incubated for 24 hrs by MTT assay; assay type: functional; parameters: scale not given: the % may be the effect or the level left
in vitro [16] = details: human, HepG2 cells; remark: listed apart in the source
Description: Toxicity in human HepG2 cells assessed as cell viability at 300 uM by MTT assay relative to control

SH-SY5Y [17] = assay: Neuroprotection in human SH-SY5Y cells assessed as reduction in Rotenone/Oligomycin A -induced cell death at 3 uM incubated for 24 hrs by MTT assay; assay type: functional; parameters: scale not given: the % may be the effect or the level left
SH-SY5Y [18] = assay: Neuroprotection in human SH-SY5Y cells assessed as reduction in H2O2-induced cell death at 1 uM incubated for 24 hrs by MTT assay; assay type: functional; parameters: scale not given: the % may be the effect or the level left
Acetylcholinesterase [19] = biological target: T2, Acetylcholinesterase; assay: Mixed type inhibition of AChE in human erythrocyte hemo-lyzates using acetylthiocholine iodide substrate by Ellman's method based Lineweaver-Burk plot analysis; assay type: tissue-based
in vitro [20] = details: human, HepG2 cells; remark: listed apart in the source
Description: Toxicity in human HepG2 cells assessed as cell viability at 1000 uM by MTT assay relative to control

Cholinesterase [21] = biological target: Cholinesterase (Equus caballus, UniProt P81908)
Chain of Cholinesterase (Equus caballus, UniProt P81908) (P81908 whole entry): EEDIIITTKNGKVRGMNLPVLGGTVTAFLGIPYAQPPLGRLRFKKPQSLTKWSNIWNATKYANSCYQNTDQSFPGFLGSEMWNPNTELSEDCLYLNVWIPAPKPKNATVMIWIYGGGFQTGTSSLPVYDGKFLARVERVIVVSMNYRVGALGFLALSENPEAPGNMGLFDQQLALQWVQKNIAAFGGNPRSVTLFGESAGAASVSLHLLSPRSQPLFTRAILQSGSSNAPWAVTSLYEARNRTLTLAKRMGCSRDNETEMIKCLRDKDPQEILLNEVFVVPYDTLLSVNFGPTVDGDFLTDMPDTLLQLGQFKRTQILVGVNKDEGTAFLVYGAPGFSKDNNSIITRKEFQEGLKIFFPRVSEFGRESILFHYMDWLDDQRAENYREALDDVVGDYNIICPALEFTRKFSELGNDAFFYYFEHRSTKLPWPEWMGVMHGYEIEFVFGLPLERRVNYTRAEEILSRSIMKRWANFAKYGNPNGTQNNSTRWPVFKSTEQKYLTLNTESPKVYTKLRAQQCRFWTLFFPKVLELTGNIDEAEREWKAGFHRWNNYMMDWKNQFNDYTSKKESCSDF
Description: Inhibition of horse serum BuChE pre-incubated for 10 mins before addition of butyrylthiocholine iodide substrate and further incubated for 15 mins by Ellman's method

[22] = Antioxidant activity assessed as decrease in peak intensity of hydroxyl radicals at 100 uM by N-oxide self-spin assay relative to control; assay type: functional; parameters: scale not given: the % may be the effect or the level left
[23] = biological target: T3, Nuclear factor erythroid 2-related factor 2 (Homo sapiens); assay: Activation of NRF2 in human MCF-7/AREc32 cells at 10 to 30 uM incubated for 24 hrs by luciferase reporter gene assay; assay type: cell-based; details: MCF7, filed as activator, dose 10-30 µM
[24] = biological target: T3, Nuclear factor erythroid 2-related factor 2 (Homo sapiens); assay: Activation of NRF2 in human MCF-7/AREc32 cells at 3 uM incubated for 24 hrs by luciferase reporter gene assay; assay type: cell-based; details: MCF7, filed as activator

COc1ccc2[nH]cc(CCNC(=O)CN(CCCCCCCCNc3c4c(nc5ccccc35)CCCC4)C(=O)/C=C/c3ccc(O)c(OC)c3)c2c1
Activity (SH-SY5Y [1]): 34.5%
Activity (SH-SY5Y [2]): 21.5%
inhibition (Cholinesterase [3]): Active
IC50 (Cholinesterase [4]): 0.0235 µM
Activity (SH-SY5Y [5]): 44.8%
Activity (SH-SY5Y [6]): 51.3%
Papp at 100 µM [7]: 5.8 ×10⁻⁶ cm/s
viability at 100 µM (in vitro [8]): 53.3%
Ratio IC50 (Acetylcholinesterase [9]): 6.91
Activity (SH-SY5Y [10]): 5.3%
IC50 (Acetylcholinesterase [11]): 0.0139 µM
Ratio IC50 (Cholinesterase [12]): 6.91
CD [13]: 15.7 µM
IC50 (Acetylcholinesterase [14]): 0.0437 µM
Activity (SH-SY5Y [15]): 66.3%
viability at 300 µM (in vitro [16]): 51.3%
Activity (SH-SY5Y [17]): 59.4%
Activity (SH-SY5Y [18]): 35.4%
inhibition (Acetylcholinesterase [19]): Active
viability at 1000 µM (in vitro [20]): 49.7%
IC50 (Cholinesterase [21]): 0.00226 µM

COc1ccc2nc3c(c(NCCCCCCCN(CC(=O)NCCc4c[nH]c5ccc(OC)cc45)C(=O)CCCC[C@@H]4CCSS4)c2c1)CCCC3
IC50 (Cholinesterase [4]): 2.65 µM
viability at 100 µM (in vitro [8]): 62.8%
IC50 (Acetylcholinesterase [11]): 0.00756 µM
IC50 (Acetylcholinesterase [14]): > 10 µM
viability at 300 µM (in vitro [16]): 57.7%
viability at 1000 µM (in vitro [20]): 48.9%
IC50 (Cholinesterase [21]): 0.00538 µM

CC(=O)SCCC(=O)NCCCCCCNc1c2c(nc3cc(Cl)ccc13)CCCC2
Activity [22]: 80.3%

COc1ccc2nc3c(c(NCCCCCCCCN(CC(=O)NCCc4c[nH]c5ccc(OC)cc45)C(=O)CCCC[C@@H]4CCSS4)c2c1)CCCC3
IC50 (Cholinesterase [4]): 1.73 µM
viability at 100 µM (in vitro [8]): 86.2%
IC50 (Acetylcholinesterase [11]): 0.0148 µM
IC50 (Acetylcholinesterase [14]): > 10 µM
viability at 300 µM (in vitro [16]): 77.8%
viability at 1000 µM (in vitro [20]): 44.9%
IC50 (Cholinesterase [21]): 0.00822 µM

COc1ccc2nc3c(c(NCCCCCCCCN(CC(=O)NCCc4c[nH]c5ccc(OC)cc45)C(=O)/C=C/c4ccc(O)c(OC)c4)c2c1)CCCC3
Activity [23]: Active
Activity (SH-SY5Y [1]): 28%
Activity (SH-SY5Y [2]): 56.3%
Activity [24]: Active
IC50 (Cholinesterase [4]): 0.336 µM
Activity (SH-SY5Y [5]): 59.6%
Activity (SH-SY5Y [6]): inactive
Papp at 100 µM [7]: 1.8 ×10⁻⁶ cm/s
viability at 100 µM (in vitro [8]): 61%
Activity (SH-SY5Y [10]): 78.9%
IC50 (Acetylcholinesterase [11]): 0.0297 µM
CD [13]: 5.99 µM
IC50 (Acetylcholinesterase [14]): > 10 µM
Activity (SH-SY5Y [15]): 35.1%
viability at 300 µM (in vitro [16]): 56%
Activity (SH-SY5Y [17]): 48%
Activity (SH-SY5Y [18]): 35.9%
viability at 1000 µM (in vitro [20]): 54.4%
IC50 (Cholinesterase [21]): 0.012 µM

CC(C)(C)c1cc(O)ccc1O
Activity [23]: Active
Activity [24]: Active
CD [13]: 1.68 µM
